# US20220135591A1, “HETEROCYCLIC COMPOUNDS AS INHIBITORS OF MONOACYLGLYCEROL LIPASE (MAGL)” (Hoffmann-La Roche Inc., priority 2019, published 2022)
# Target: T1, MAGL (recombinant wild-type) (Homo sapiens, UniProt Q99685)
# T1 sequence (Q99685 1-303): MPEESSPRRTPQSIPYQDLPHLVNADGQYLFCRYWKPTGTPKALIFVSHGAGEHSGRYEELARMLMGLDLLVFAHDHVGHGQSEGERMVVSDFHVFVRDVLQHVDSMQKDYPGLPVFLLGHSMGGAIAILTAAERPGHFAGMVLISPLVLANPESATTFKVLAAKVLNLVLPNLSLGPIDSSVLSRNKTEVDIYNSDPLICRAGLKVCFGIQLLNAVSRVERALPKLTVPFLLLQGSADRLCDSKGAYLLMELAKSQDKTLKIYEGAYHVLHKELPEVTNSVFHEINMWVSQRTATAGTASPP
# Test: 4-NPA assay: MAGL inhibitory activity by hydrolysis of 4-nitrophenylacetate, absorbance at 405 nm
# Type: biochemical
# Conditions: 4-NPA assay (values without footnote [b])
# In short: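 Final assay: 1 nM MAGL and 300 μM 4-nitrophenylacetate in 50 mM Tris, 1 mM EDTA, at RT. Compounds (25 μM–1.7 nM, 3-fold steps) were preincubated 15 min with enzyme. A405 was read 5 min after substrate addition and again after 80 min; activity was taken as the difference between reads.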
row,IC50,Compound
1,1520 nM,"Cc1ccc2oc(N3CCN(C(=O)c4cc(Cl)cc(N5CCS(=O)(=O)CC5)c4)CC3)nc2n1 [Example 175, [3-chloro-5-(1,1-dioxo-1,4-thiazinan-4-yl)phenyl]-[4-(5-methyl-[1,3]oxazolo[4,5-b]pyridin-2-yl)piperazin-1-yl]methanone]"
2,4150 nM,"CC(=O)N1CCN(c2cc(Cl)cc(C(=O)N3CCN(c4nc5nc(C)ccc5o4)CC3)c2)CC1 [Example 176, 1-[4-[3-chloro-5-[4-(5-methyl-[1,3]oxazolo[4,5-b]pyridin-2-yl)piperazine-1-carbonyl]phenyl]piperazin-1-yl]ethanone]"
3,3160 nM,"Cc1ccc2oc(N3CCN(C(=O)c4cc(Cl)cc(N5CCC(F)(F)CC5)c4)CC3)nc2n1 [Example 177, [3-chloro-5-(4,4-difluoropiperidin-1-yl)phenyl]-[4-(5-methyl-[1,3]oxazolo[4,5-b]pyridin-2-yl)piperazin-1-yl]methanone]"
4,2490 nM,"Cc1ccc2oc(N3CCN(C(=O)c4cc(Cl)cc(N5CCC(CO)CC5)c4)CC3)nc2n1 [Example 178, [3-chloro-5-[4-(hydroxymethyl)piperidin-1-yl]phenyl]-[4-(5-methyl-[1,3]oxazolo[4,5-b]pyridin-2-yl)piperazin-1-yl]methanone]"
5,3940 nM,"Cc1ccc2oc(N3CCN(C(=O)c4cc(Cl)cc(N5CC6(CC(O)C6)C5)c4)CC3)nc2n1 [Example 179, [3-chloro-5-(6-hydroxy-2-azaspiro[3.3]heptan-2-yl)phenyl]-[4-(5-methyl-[1,3]oxazolo[4,5-b]pyridin-2-yl)piperazin-1-yl]methanone]"
6,810 nM,"Cc1ccc2oc(N3CCN(C(=O)c4ccc(N5CC6(CCCC6)C5)c(-c5ncc[nH]5)c4)CC3)nc2n1 [Example 180, [4-(2-azaspiro[3.4]octan-2-yl)-3-(1H-imidazol-2-yl)phenyl]-[4-(5-methyl-[1,3]oxazolo[4,5-b]pyridin-2-yl)piperazin-1-yl]methanone]"
7,180 nM,"Cc1ccc2oc(N3CCN(C(=O)c4cc(Cl)cc(-c5ccc(CO)cc5)c4)CC3)nc2n1 [Example 181, [3-chloro-5-[4-(hydroxymethyl)phenyl]phenyl]-[4-(5-methyl-[1,3]oxazolo[4,5-b]pyridin-2-yl)piperazin-1-yl]methanone]"
8,379 nM,"Cc1ccc2oc(N3CCN(C(=O)c4cc(OCCC(F)(F)F)cc(-c5ccc(CO)cc5)c4)CC3)nc2n1 [Example 182, [3-[4-(hydroxymethyl)phenyl]-5-(3,3,3-trifluoropropoxy)phenyl]-[4-(5-methyl-[1,3]oxazolo[4,5-b]pyridin-2-yl)piperazin-1-yl]methanone]"
9,10 nM,"Cc1ccc2oc(N3CCN(C(=O)c4ccc(OCC5(C(F)(F)F)CC5)c(-c5ccc(CO)cc5)c4)CC3)nc2n1 [Example 183, [3-[4-(hydroxymethyl)phenyl]-4-[[1-(trifluoromethyl)cyclopropyl]methoxy]phenyl]-[4-(5-methyl-[1,3]oxazolo[4,5-b]pyridin-2-yl)piperazin-1-yl]methanone]"
10,78 nM,"Cc1ccc2oc(N3CCN(C(=O)c4ccc(OCCC(F)(F)F)c(-c5ccc(CO)cc5)c4)CC3)nc2n1 [Example 184, [3-[4-(hydroxymethyl)phenyl]-4-(3,3,3-trifluoropropoxy)phenyl]-[4-(5-methyl-[1,3]oxazolo[4,5-b]pyridin-2-yl)piperazin-1-yl]methanone]"
11,302 nM,"Cc1ccc2oc(N3CCN(C(=O)c4cc(OCC5(C(F)(F)F)CC5)cc(-c5ccc(CO)cc5)c4)CC3)nc2n1 [Example 185, [3-[4-(hydroxymethyl)phenyl]-5-[[1-(trifluoromethyl)cyclopropyl]methoxy]phenyl]-[4-(5-methyl-[1,3]oxazolo[4,5-b]pyridin-2-yl)piperazin-1-yl]methanone]"
12,12 nM,"Cc1ccc2oc(N3CCN(C(=O)c4ccc(-c5noc(CC(C)(C)C)n5)c(-c5ccc(CO)cc5)c4)CC3)nc2n1 [Example 186, [4-[5-(2,2-dimethylpropyl)-1,2,4-oxadiazol-3-yl]-3-[4-(hydroxymethyl)phenyl]phenyl]-[4-(5-methyl-[1,3]oxazolo[4,5-b]pyridin-2-yl)piperazin-1-yl]methanone]"
13,9 nM,"Cc1ccc2oc(N3CCN(C(=O)c4ccc(OCC5(C)CC5)c(-c5ccc(CO)cc5)c4)CC3)nc2n1 [Example 187, [3-[4-(hydroxymethyl)phenyl]-4-[(1-methylcyclopropyl)methoxy]phenyl]-[4-(5-methyl-[1,3]oxazolo[4,5-b]pyridin-2-yl)piperazin-1-yl]methanone]"
14,165 nM,"Cc1ccc2oc(N3CCN(C(=O)c4cc(OCC5(C)CC5)cc(-c5ccc(CO)cc5)c4)CC3)nc2n1 [Example 188, [3-[4-(hydroxymethyl)phenyl]-5-[(1-methylcyclopropyl)methoxy]phenyl]-[4-(5-methyl-[1,3]oxazolo[4,5-b]pyridin-2-yl)piperazin-1-yl]methanone]"
15,2490 nM,"CC(C)(C)c1nc(-c2ccc(C(=O)N3CCN(c4nc5nc(C6CC6)ccc5o4)CC3)cc2)no1 [Example 189, (4-(5-(tert-butyl)-1,2,4-oxadiazol-3-yl)phenyl)(4-(5-cyclopropyloxazolo[4,5-b]pyridin-2-yl)piperazin-1-yl)methanone]"
16,4120 nM,"O=C(c1ccc(N2CC3(CCCO3)C2)cc1)N1CCN(c2nc3ncccc3o2)CC1 [Example 192, (4-(5-oxa-2-azaspiro[3.4]octan-2-yl)phenyl)(4-(oxazolo[4,5-b]pyridin-2-yl)piperazin-1-yl)methanone]"
17,355 nM,"CC(OC1CN(c2ccc(C(=O)N3CCN(c4nc5ncccc5o4)CC3)cc2)C1)C(F)(F)F (stereo not shown) [Example 193, (4-(oxazolo[4,5-b]pyridin-2-yl)piperazin-1-yl)(4-(3-((1,1,1-trifluoropropan-2-yl)oxy)azetidin-1-yl)phenyl)methanone]"
18,486 nM,"Cc1ccc2oc(N3CCN(C(=O)c4ccc(N5CC6(CCCO6)C5)cc4)CC3)nc2n1 [Example 194, (4-(5-oxa-2-azaspiro[3.4]octan-2-yl)phenyl)(4-(5-methyloxazolo[4,5-b]pyridin-2-yl)piperazin-1-yl)methanone]"
19,39 nM,"Cc1ccc2oc(N3CCN(C(=O)c4ccc(N5CC(OC(C)C(F)(F)F)C5)cc4)CC3)nc2n1 (stereo not shown) [Example 195, (4-(5-methyloxazolo[4,5-b]pyridin-2-yl)piperazin-1-yl)(4-(3-((1,1,1-trifluoropropan-2-yl)oxy)azetidin-1-yl)phenyl)methanone]"
20,441 nM,"O=C(c1ccc(N2CC(Oc3ccccc3)C2)cc1)N1CCN(c2nc3ncccc3o2)CC1 [Example 196, (4-(oxazolo[4,5-b]pyridin-2-yl)piperazin-1-yl)(4-(3-phenoxyazetidin-1-yl)phenyl)methanone]"
21,471 nM,"COc1ccc2oc(N3CCN(C(=O)c4ccc(-c5noc(C(C)(C)C)n5)cc4)CC3)nc2n1 [Example 197, (4-(5-(tert-butyl)-1,2,4-oxadiazol-3-yl)phenyl)(4-(5-methoxyoxazolo[4,5-b]pyridin-2-yl)piperazin-1-yl)methanone]"
22,46 nM,"Cc1ccc2oc(N3CCN(C(=O)c4ccc(N5CC(Oc6ccccc6)C5)cc4)CC3)nc2n1 [Example 198, (4-(5-methyloxazolo[4,5-b]pyridin-2-yl)piperazin-1-yl)(4-(3-phenoxyazetidin-1-yl)phenyl)methanone]"
